# Assays:
# Test in all cases: relative viability (nuclei count vs DMSO), 5 days (fraction); higher = more cells survive
# Carboplatin + Pictilisib = compound: C1CC(C1)(C(=O)O)C(=O)O.[NH2-].[NH2-].[Pt+2] [Carboplatin] + CS(=O)(=O)N1CCN(Cc2cc3nc(-c4cccc5[nH]ncc45)nc(N4CCOCC4)c3s2)CC1 [Pictilisib] (partner 1 µM)
# How it was run: (§1)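 The day after seeding in 1536-well plates, lung cancer cell lines were treated by pin tool with a single drug, or with a fixed anchor-drug dose together with five library-drug doses (not always all listed) in √10 steps. After 5 days, a combined fix-and-stain solution (final 0.05% Triton X-100, 1% formaldehyde, 1 ug/ml Hoechst) was added. Nuclei counted on 4× images gave relative viability as treated counts over vehicle counts, reported as the median of duplicate plates.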
# GSK126 + Trametinib = compound: CC[C@H](C)N1C=C(C2=C(C=C(C=C21)C3=CN=C(C=C3)N4CCNCC4)C(=O)NCC5=C(C=C(NC5=O)C)C)C [GSK126] + CC(=O)Nc1cccc(-n2c(=O)n(C3CC3)c(=O)c3c(Nc4ccc(I)cc4F)n(C)c(=O)c(C)c32)c1 [Trametinib] (partner 0.02 µM)
# How it was run: as §1
# GSK126 + Pictilisib = compound: CC[C@H](C)N1C=C(C2=C(C=C(C=C21)C3=CN=C(C=C3)N4CCNCC4)C(=O)NCC5=C(C=C(NC5=O)C)C)C [GSK126] + CS(=O)(=O)N1CCN(Cc2cc3nc(-c4cccc5[nH]ncc45)nc(N4CCOCC4)c3s2)CC1 [Pictilisib] (partner 1 µM)
# How it was run: as §1
# MLN4924 + Tozasertib = compound: NS(=O)(=O)OC[C@@H]1C[C@@H](n2ccc3c(N[C@H]4CCc5ccccc54)ncnc32)C[C@@H]1O [MLN4924] + Cc1cc(Nc2cc(N3CCN(C)CC3)nc(Sc3ccc(NC(=O)C4CC4)cc3)n2)n[nH]1 [Tozasertib] (partner 0.1 µM)
# How it was run: as §1
cell line,measurement,setting,value
UMC-11,relative viability,Carboplatin + Pictilisib; first compound 0.08 µM,0.779
same,relative viability,Carboplatin + Pictilisib; first compound 0.253 µM,0.777
same,relative viability,Carboplatin + Pictilisib; first compound 0.8 µM,0.76
same,relative viability,Carboplatin + Pictilisib; first compound 2.53 µM,0.78
same,relative viability,Carboplatin + Pictilisib; first compound 8 µM,0.587
same,relative viability,GSK126 + Trametinib; first compound 0.08 µM,0.744
same,relative viability,GSK126 + Trametinib; first compound 0.253 µM,0.774
same,relative viability,GSK126 + Trametinib; first compound 0.8 µM,0.771
same,relative viability,GSK126 + Trametinib; first compound 2.53 µM,0.714
same,relative viability,GSK126 + Trametinib; first compound 8 µM,0.728
same,relative viability,GSK126 + Pictilisib; first compound 0.08 µM,0.91
same,relative viability,GSK126 + Pictilisib; first compound 0.253 µM,0.85
same,relative viability,GSK126 + Pictilisib; first compound 0.8 µM,0.882
same,relative viability,GSK126 + Pictilisib; first compound 2.53 µM,0.829
same,relative viability,GSK126 + Pictilisib; first compound 8 µM,0.714
same,relative viability,MLN4924 + Tozasertib; first compound 0.04 µM,0.205
same,relative viability,MLN4924 + Tozasertib; first compound 0.1265 µM,0.212
same,relative viability,MLN4924 + Tozasertib; first compound 0.4 µM,0.215
same,relative viability,MLN4924 + Tozasertib; first compound 1.265 µM,0.19
same,relative viability,MLN4924 + Tozasertib; first compound 4 µM,0.184

# Source: the supplement of paper PMC10307832
